These results are taken from patent publication US20180305334A1, “COMPOUNDS, COMPOSITIONS AND METHODS OF USE AGAINST STRESS GRANULES” (Aquinnah Pharmaceuticals, Inc., priority 2015, published 2018).

The subject of one test is TDP-43 aggregation in PC12 cells stably expressing TDP-43^Q331K::eGFP. In words: In vitro efficacy assay, TDP-43 aggregation concentration-response. Format: cell-based. Conditions: Rattus norvegicus, PC-12, inhibition of TDP-43 aggregation; PC12 TDP-43^Q331K::eGFP, 1 hour pre-treatment, 15 μM sodium arsenite for 23 hours; 10-point dose response. Here is the method: Exemplary compounds of the invention were evaluated for efficacy in inhibiting TDP-43 inclusions using a concentration-response assay. Briefly, PC12 cells stably expressing a GFP-tagged mutant form of TDP-43 (TDP-43^Q331K::eGFP) were pre-treated for 1 hour with exemplary compounds and stressed with 15 μM sodium arsenite for 23 hours to induce TDP-43 aggregation. The inhibitory effect on TDP-43 aggregation was measured using fluorescence microscopy. The ratio of cells with TDP-43 aggregates was calculated based on the total number of cells with detectable GFP expression.
Consider `CCN(CC1CCCN(CCc2cccc(OC)c2)C1)C(=O)c1cc2ccccc2s1` (centres unmarked) [Compound 235], for which the IC50 (usually the concentration that gives 50% inhibition) lay in the range of 1500 to 4000 nM.

Consider `CCN(CC1CCN(CC(F)(F)c2cccc(F)c2)CC1)C(=O)c1cc2ccccc2[nH]1` [Compound 410], for which the half-maximal inhibitory concentration (IC50) was in the range of 1500 to 4000 nM.

Take `CCN(CC1CCCN(Cc2ccc(OC)cc2)C1)C(=O)c1cc2ccc(C)cc2[nH]1` (centres unmarked) [Compound 156]: the 50% inhibitory concentration (IC50) was 1500 to 4000 nM.

Take `CCN(CC1CCCN(Cc2ccc(OC)cc2)C1)C(=O)c1cc2cc(OCc3ccccc3)ccc2[nH]1` (centres unmarked) [Compound 174]: the IC50 fell in the range of 1500 to 4000 nM.

In the case of `CCN(CC1CCCN(Cc2ccc(OC)cc2)C1)C(=O)c1cc2ccc(Cl)cc2[nH]1` (centres unmarked) [Compound 168], the IC50 was under 1500 nM.

In the case of `CCN(CC1CCCN(Cc2ccccc2C#N)C1)C(=O)c1cc2ccccc2[nH]1` (centres unmarked) [Compound 130], the IC50 was 1500 to 4000 nM.

As for `CCN(CC1CCCN(CCc2ccc3c(c2)OCC3)C1)C(=O)c1cc2ccccc2[nH]1` (centres unmarked) [Compound 145], the IC50 was in the range of 1500 to 4000 nM.

For the molecule `CCN(CC1CCCNC1)C(=O)c1cc2cc(OCc3ccccc3)ccc2[nH]1` (centres unmarked) [compound 424], the IC50 fell in the range of 4000 to 7000 nM.

On to `COc1cccc(CN2CCC(CN(C)C(=O)c3cc4ccccc4[nH]3)CC2)c1` [compound 257], for which the IC50 was in the range of 4000 to 7000 nM.

`CCN(CC1CCN(Cc2cccc(OC(F)F)c2)CC1)C(=O)c1cc2cc(OC(F)F)ccc2[nH]1` [compound 310]: the 50% inhibitory concentration (IC50) fell in the range of 4000 to 7000 nM.

As for `CCN(CC1CCCN(CC(C)(C)c2cc3ccccc3o2)C1)C(=O)c1cc2ccccc2[nH]1` (centres unmarked) [Compound 409], the IC50 was 1500 to 4000 nM.

`CCN(CC1CCCN(CCc2cccc(OC)c2)C1)C(=O)c1ccc[nH]1` (centres unmarked) [Compound 231]: the half-maximal inhibitory concentration (IC50) was in the range of 1500 to 4000 nM.

Take `CCN(CC1CCCN(CC(C)(C)c2cccc(OC(F)(F)F)c2)C1)C(=O)c1cc2cc(OC(F)(F)F)ccc2[nH]1` (centres unmarked) [Compound 407]: the concentration for half-maximal inhibition (IC50) is over 10000 nM.

For `CCN(CC1CCCNC1)C(=O)c1cc2cc(OC)c(OC)cc2[nH]1` (centres unmarked) [compound 415], the IC50 is over 10000 nM.

For the molecule `COc1cccc(CC(=O)N2CCC(CNC(=O)c3cc4ccccc4[nH]3)CC2)c1` [Compound 322], the half-inhibitory concentration (IC50) was in the range of 1500 to 4000 nM.

In the case of `CCN(CC1CCCN(C(C)(C)Cc2cccc(OC(F)F)c2)C1)C(=O)c1cc2cc(OC(F)F)ccc2[nH]1` (centres unmarked) [compound 315], the IC50 was under 1500 nM.

`CCN(CC1CCN(Cc2cccc(F)c2)CC1)C(=O)c1cc2ccccc2[nH]1` [Compound 252]: the IC50 was over 10000 nM.

`CN(CC1CCN(Cc2ccccc2Cl)CC1)C(=O)c1cc2ccccc2[nH]1` [compound 259]: the IC50 is over 10000 nM.

For the molecule `CC(C)(Cc1cccc(F)c1)N1CCC(CN(CC(F)(F)F)C(=O)c2cc3ccccc3[nH]2)CC1` [Compound 353], the half-maximal inhibitory concentration (IC50) is under 1500 nM.

For the molecule `CCN(CC1CCCN(Cc2ccc(Cl)cc2)C1)C(=O)c1cc2cc(Cl)ccc2[nH]1` (centres unmarked) [Compound 160], the IC50 is under 1500 nM.

As to `COc1cccc(CCN2CCCC(CN(C(=O)c3cc4ccccc4[nH]3)C(C)C)C2)c1` (centres unmarked) [Compound 143], the IC50 is under 1500 nM.

With `CCN(CC1CCCN(C2CCc3ccccc3C2)C1)C(=O)c1cc2ccccc2[nH]1` (centres unmarked) [Compound 208], the concentration for half-maximal inhibition (IC50) was in the range of 4000 to 7000 nM.

As to `CCN(CC1CCCN(Cc2ccc(Cl)cc2)C1)C(=O)c1cc2c(F)cc(F)cc2[nH]1` (centres unmarked) [Compound 169], the 50% inhibitory concentration (IC50) is under 1500 nM.

For the molecule `CCN(CC1CCCN(C(C)(C)c2ccc(OC)cc2)C1)C(=O)c1cc2cc(Cl)ccc2[nH]1` (centres unmarked) [Compound 357], the IC50 is under 1500 nM.

On to `CCN(CC1CCCN(CCc2cccc(OC)c2)C1)C(=O)c1cn(C)c2ccccc12` (centres unmarked) [Compound 248], for which the IC50 was under 1500 nM.

For `CCN(CC1CCCN(CCc2cccc(F)c2)C1)C(=O)c1cc2ccccc2[nH]1` (centres unmarked) [Compound 140], the concentration for half-maximal inhibition (IC50) was under 1500 nM.

For `CCN(CC1CCCN(Cc2ccc(Cl)cc2)C1)C(=O)c1cc2ccccc2[nH]1` (centres unmarked) [Compound 138], the 50% inhibitory concentration (IC50) was under 1500 nM.

Consider `CCN(CC1CCN(C2(Cc3cccc(OC)c3)CC2)CC1)C(=O)c1cc2ccccc2[nH]1` [Compound 360], for which the 50% inhibitory concentration (IC50) was under 1500 nM.

Take `CCN(CC1CCN(CC(C)(C)c2cc3ccccc3o2)CC1)C(=O)c1cc2ccccc2[nH]1` [Compound 405]: the IC50 lay within 4000 to 7000 nM.

On to `COc1ccc(CN2CCC(CN(C(=O)c3cc4ccccc4[nH]3)C(C)C)CC2)cc1` [compound 265], for which the IC50 was under 1500 nM.

For `CCN(CC1CCCN(CCc2ccc(OC)cc2)C1)C(=O)c1cc2ccccc2[nH]1` (centres unmarked) [Compound 127], the half-inhibitory concentration (IC50) is under 1500 nM.

As to `CCN(CC1CCCNC1)C(=O)c1cc2ccc(C)cc2[nH]1` (centres unmarked) [compound 417], the concentration for half-maximal inhibition (IC50) is over 10000 nM.

As to `CCN(CC1CCN(C(C)(C)Cc2cccc(F)c2F)CC1)C(=O)c1cc2ccccc2[nH]1` [Compound 342], the IC50 was over 10000 nM.

`CCN(CC1CCCN(CCc2cccc(OC)c2)C1)C(=O)c1cc(C#N)c[nH]1` (centres unmarked) [Compound 242]: the half-inhibitory concentration (IC50) lay in the range of 1500 to 4000 nM.

In the case of `CCN(CC1CCCN(Cc2cccc(Cl)c2)C1)C(=O)c1cc2ccccc2[nH]1` (centres unmarked) [Compound 134], the IC50 fell in the range of 1500 to 4000 nM.

`CCN(CC1CCCN(C(C)(C)c2cc3ccccc3o2)C1)C(=O)c1cc2ccccc2[nH]1` (centres unmarked) [compound 317]: the IC50 is 1500 to 4000 nM.

`CCN(CC1CCCN(Cc2ccc(OC)cc2)C1)C(=O)c1cc2ccc(OC)cc2[nH]1` (centres unmarked) [Compound 162]: the concentration for half-maximal inhibition (IC50) lay within 1500 to 4000 nM.

Take `CCN(CC1CCN(C(C)(C)c2ccccc2)CC1)C(=O)c1cc2cc(OC)ccc2[nH]1` [Compound 359]: the IC50 is under 1500 nM.

With `CCN(CC1CCN(C(C)(C)Cc2cccc(OC)c2)CC1)C(=O)c1cc2ncccc2[nH]1` [Compound 363], the IC50 was under 1500 nM.

Consider `CCN(CC1CCCN(Cc2ccc(OC)cc2)C1)C(=O)c1cc2c(F)cccc2[nH]1` (centres unmarked) [Compound 166], for which the half-maximal inhibitory concentration (IC50) is over 10000 nM.

For `CCN(CC1CCCN(Cc2ccc(Cl)cc2)C1)C(=O)c1cc2c(Cl)cc(Cl)cc2[nH]1` (centres unmarked) [Compound 153], the IC50 lay in the range of 1500 to 4000 nM.

Consider `CCN(CC1CCCN(C(=O)Cc2ccc(OC)cc2)C1)C(=O)c1cc2ccccc2[nH]1` (centres unmarked) [Compound 201], for which the IC50 is under 1500 nM.

`CCN(CC1CCCNC1)C(=O)c1cc2ccccc2[nH]1` (centres unmarked) [Compound 413]: the IC50 was over 10000 nM.

Turning to `CCN(CC1CCCN(Cc2ccc(OC)cc2)C1)C(=O)c1cc2cc(F)ccc2[nH]1` (centres unmarked) [Compound 151], the IC50 was under 1500 nM.

Regarding `COc1cccc(CCN2CCCC(CN(C(=O)c3cc4ccccc4[nH]3)C3CCCCC3)C2)c1` (centres unmarked) [Compound 219], the IC50 was under 1500 nM.

Take `CCN(CC1CCCN(S(=O)(=O)c2ccc(OC)cc2)C1)C(=O)c1cc2ccccc2[nH]1` (centres unmarked) [Compound 200]: the IC50 fell in the range of 1500 to 4000 nM.

Turning to `CCN(CC1CCN(Cc2ccccc2OC)CC1)C(=O)c1cc2ccccc2[nH]1` [compound 287], the IC50 lay within 4000 to 7000 nM.

On to `CCN(CC1CCCNC1)C(=O)c1cc2ccc(Cl)cc2[nH]1` (centres unmarked) [compound 423], for which the IC50 was under 1500 nM.

As for `CCN(CC1CCCN(Cc2cc3ccccc3o2)C1)C(=O)c1cc2ccccc2[nH]1` (centres unmarked) [Compound 206], the IC50 is under 1500 nM.

Regarding `CCN(CC1CCCN(Cc2ccc(OC)cc2)C1)C(=O)c1cc2c(F)cc(F)cc2[nH]1` (centres unmarked) [Compound 170], the IC50 was under 1500 nM.

On to `COc1cccc(CCN2CCCC(CN(CC3CCCCC3)C(=O)c3cc4ccccc4[nH]3)C2)c1` (centres unmarked) [Compound 220], for which the IC50 is over 10000 nM.

As to `CCN(CC1CCCN(Cc2cccc(OC(F)F)c2)C1)C(=O)c1cc2cc(OC(F)F)ccc2[nH]1` (centres unmarked) [Compound 177], the IC50 is under 1500 nM.

`CCN(CC1CCN(Cc2ccc(F)cc2)CC1)C(=O)c1cc2ccccc2[nH]1` [compound 290]: the IC50 is over 10000 nM.

On to `CCN(CC1CCN(C(C)(C)Cc2cccc(OC)c2)CC1)C(=O)c1cc2ccccc2[nH]1` [Compound 332], for which the half-maximal inhibitory concentration (IC50) is under 1500 nM.

Take `CCN(CC1CCN(C(C)(C)c2cc3ccccc3o2)CC1)C(=O)c1cc2ccccc2[nH]1` [Compound 340]: the half-inhibitory concentration (IC50) is under 1500 nM.

As to `CCN(CC1CCCN(CCc2cccc(OC)c2)C1)C(=O)c1coc2ccccc12` (centres unmarked) [Compound 233], the concentration for half-maximal inhibition (IC50) was under 1500 nM.

For `CCN(CC1CCN(Cc2cccc(OC)c2)CC1)C(=O)c1cc2ccccc2[nH]1` [compound 267], the concentration for half-maximal inhibition (IC50) was 1500 to 4000 nM.

With `CCN(CC1CCCNC1)C(=O)c1cc2cc(OC(F)(F)F)ccc2[nH]1` (centres unmarked) [compound 426], the IC50 was over 10000 nM.

Take `CCN(CC1CCCN(CCc2cccc(OC)c2)C1)C(=O)c1ccc2ccccc2c1` (centres unmarked) [Compound 237]: the half-inhibitory concentration (IC50) fell in the range of 1500 to 4000 nM.

`CC(C)(Cc1cccc(F)c1)N1CCCC(CN(CC(F)(F)F)C(=O)c2cc3ccccc3[nH]2)C1` (centres unmarked) [Compound 352]: the IC50 is under 1500 nM.

In the case of `CCN(CC1CCCNC1)C(=O)c1cc2ccc(OC)cc2[nH]1` (centres unmarked) [compound 419], the IC50 was over 10000 nM.

With `CCN(CC1CCCN(Cc2cc3ccccc3o2)C1)C(=O)c1cc2c(OC)cccc2[nH]1` (centres unmarked) [Compound 204], the half-maximal inhibitory concentration (IC50) was under 1500 nM.

As to `CCN(CC1CCN(Cc2ccccc2F)CC1)C(=O)c1cc2ccccc2[nH]1` [compound 268], the IC50 lay within 1500 to 4000 nM.

Staying with this test, now noted: inhibition of TDP-43 aggregation; PC12 TDP-43^Q331K::eGFP, 1 hour pre-treatment, 15 μM sodium arsenite for 23 hours; 10-point dose response.
As for `CCN(CC1CCCN(C(C)(C)c2cc3ccccc3o2)C1)C(=O)c1cc2ccccc2[nH]1` (centres unmarked) [Compound 338], the IC50 was under 1500 nM.

As for `CCN(CC1CCCN(Cc2ccc(Cl)cc2)C1)C(=O)c1cc2ccc(Cl)cc2[nH]1` (centres unmarked) [Compound 167], the concentration for half-maximal inhibition (IC50) was under 1500 nM.

With `CCN(CC1CCCN(C(C)(C)Cc2cccc(OC(F)(F)F)c2)C1)C(=O)c1cc2cc(OC(F)(F)F)ccc2[nH]1` (centres unmarked) [Compound 337], the IC50 was under 1500 nM.

Turning to `CCN(CC1CCCN(C(C)(C)Cc2cccc(Cl)c2)C1)C(=O)c1cc2ccccc2[nH]1` (centres unmarked) [Compound 335], the 50% inhibitory concentration (IC50) was under 1500 nM.

As for `CCN(CC1CCCN(C(C)(C)Cc2cccc(OC)c2)C1)C(=O)c1cc2cc(OC)ccc2[nH]1` (centres unmarked) [Compound 334], the 50% inhibitory concentration (IC50) is under 1500 nM.
